Like-named read-outs stand apart in the source and are kept apart here. Some results are limits rather than exact numbers.

Experiment [1] concerns rhino mouse. The experiment in a line: Rhino mouse utriculi reduction assay. Conditions: concentration to reach 30% utriculi reduction; topical in ethanol vehicle (50ul) to dorsal area once daily for 5 days; tested range 0.00033 mM to 16.5 mM. Type of experiment: in vivo, female hairless rhino mice (hr^rh/hr^rh). As to the method:
Representatives from compounds of formula I were tested for their effect on utriculi reduction on rhino mouse and directly compared to all-trans retinoic acid.
Six to nine week old female hairless rhino mice (hr^rh/hr^rh) were produced in the Bristol-Myers Squibb colony. Test retinoids in ethanol vehicle (50ul) were applied to the dorsal area (approximately 1.5 x 3 cm^2) of rhino mice once daily for 5 days (Monday to Friday). For various retinoids, a dose response was obtained with concentrations ranging from 0.00033 mM to 16.5 mM. The animals were sacrificed on the following Monday by CO2 inhalation. A 7/8" full thickness punch was taken from the central dorsal area of each animal. The epidermis of the biopsy was removed from the dermis after incubation in 0.5% acetic acid overnight at 4°C. The separated epidermis was then fixed in formalin, dehydrated with ethanol, and cleared in xylene. To determine the utriculi diameter, each epidermis sheet was placed on a glass slide in xylene. For each specimen, the diameter of 40 utricules was measured with an image analysis system (IBM PC, Image Measure program and Olympus microscope with video camera). % Utriculi reduction was calculated as (1 -(utriculi diameter in the test group)/(utriculi diammeter in the ethanol control group))× 100% [formula] […]

Experiment [2] deals with lung line L2987. The experiment in a line: Cytotoxicity assay (alamarBlue viability). Type of experiment: cell-based. The settings on record: Homo sapiens. As to the method:
Figure 1, 2 and 3 are the cytotoxicity dose response curves for lung line L2987. […] Briefly, the assayed involved plating 1000 cells per well in a volume of 120 µL in a 96 well flat-bottom dish (Corning) on day -1. Twenty-four hours later the appropriate dilution of a compound of formula I was added in a volume of 30 µL complete medium (final volume 150 µL). The plates were sealed with a plate sealer (Dynatech Labs) to prevent evaporation. On day 5 the mylar film was removed and 15 µL of sterile alamarBlue was added to each well and the cells were incubated 37 °C 5% CO2 for two hours. Using a Vmax plate reader the optical density for each well was determined having the OD570 subtracted from the OD600. The 100% signal was determined for cells grown in complete medium containing only 0.5% DMSO. All wells were set-up in triplicate and the mean values were plotted in Figures 1, 2 and 3.

Where [3] appears, read: L2987, L2987 experiment 2, 1000 cells per well, compound added after 24 h, read on day 5, read-out: IC50.

Take `CC1(C)C=C(c2ccccc2)c2cc(C=Cc3ccc(C(=O)O)cc3)ccc21` [I^33a, 4-[2-(1,1-dimethyl-3-phenyl-1H-inden-5-yl)vinyl]benzoic acid]: the ED30 in experiment [1] is reported as 0.86.
In the case of `CC1(C)CC=C(c2ccccc2)c2cc(C(=O)Sc3ccc(C(=O)O)cc3)ccc21` [I^12a], in experiment [2] (setting [3]), the IC50 was more than 100 µM.
Still for that read-out and setting: the figure for `CC1(C)CC=C(c2ccccc2)c2cc(C(=O)Nc3ccc(C(=O)O)cc3)ccc21` [I^4a] is 28 µM.
In experiment [2] (L2987), `CC1=C(/C=C/C(C)=C/C=C/C(C)=C/C(=O)O)C(C)(C)CCC1` [All trans retinoic acid, reference compound] had an IC50 of 68 µM.
Take `CC1(C)CC=C(c2ccccc2)c2cc(COc3ccc(C(=O)O)cc3)ccc21` [I^26a, 4-[[[(5,6-Dihydro-5,5-dimethyl-8-phenyl)-2-naphthalenyl]methyl]oxy]benzoic acid]: the IC50 in experiment [2] (setting [3]) was found to be 48 µM.
With `CC1(C)C=C(c2ccccc2)c2cc(C(=O)Nc3ccc(C(=O)O)cc3)ccc21` [I^30a, 4-[(1,1-Dimethyl-3-phenyl-1H-indene-5-carbonyl)amino]benzoic acid], the IC50 in experiment [2] (setting [3]) turned out to be 60 µM. The molecule further returned an ED30 in experiment [1] of 2.35.
Turning to `CC1(C)CC=C(c2ccccc2)c2cc(C(=O)Oc3ccc(C(=O)O)cc3)ccc21` [I^10a], the IC50 in experiment [2] (setting [3]) was determined as 47 µM.

The values are drawn from EP0661259B1, “Substituted (5,6)-dihydronaphthalenyl compounds having retinoid-like activity” (BRISTOL-MYERS SQUIBB COMPANY, priority 1994, dated 1995).
